Experiments:
[1] = cited from earlier work
[2] = Storage stability: chromatographic purity (HPLC) of crystalline Form II on storage; assay type: physicochemical; conditions: for Chromatographic Purity (1M storage at 25° C. ± 2° C./60% ± 5% RH) / Chromatographic Purity after 1M storage (at 25° C.±2° C./60%±5% RH) / Chromatographic Purity (1M storage at 40° C. ± 2° C./75% ± 5% RH) / Chromatographic Purity after 1M storage (at 40° C.±2° C./75%±5% RH): 1 month storage; for Chromatographic Purity (Initial): before storage
From the text: In an embodiment of the first aspect, the pure crystalline Form II of the L-malic acid salt of sunitinib has a purity of not less than 97.0% as measured by a chromatographic technique such as High-Performance Liquid Chromatography (HPLC).
Table 1 below compares the chromatographic purity of crystalline Form II of an L-malic acid salt of sunitinib prepared without using an anti-oxidant (as per Example 8), and pure crystalline Form II of an L-malic acid salt of sunitinib prepared using an anti-oxidant (as per Examples 1, 2, and 4), on storage at 25° C.±2° C. and 40° C.±2° C. at a relative humidity of 60%±5% and 75%±5%, respectively, for 1 month and above.

SMILES	form conversion and moisture absorption on storage ([1]; disclosed in WO 2011/061613)	Chromatographic Purity (1M storage at 25° C. ± 2° C./60% ± 5% RH) ([2]; 25° C.±2° C., 60%±5% RH) [% w/w]	Chromatographic Purity after 1M storage (at 25° C.±2° C./60%±5% RH) ([2]; 25° C.±2° C., 60%±5% RH) [%]	Chromatographic Purity (1M storage at 40° C. ± 2° C./75% ± 5% RH) ([2]; 40° C.±2° C., 75%±5% RH) [% w/w]	Chromatographic Purity after 1M storage (at 40° C.±2° C./75%±5% RH) ([2]; 40° C.±2° C., 75%±5% RH) [%]	Chromatographic Purity (Initial) [2] [% w/w]	Chromatographic Purity (Initial) ([2]; example text) [%]	hygroscopicity ([1]; disclosed in WO 2009/104021)	Chromatographic Purity (1M storage at 25° C. ± 2° C./60% ± 5% RH) ([2]; 25° C. ± 2° C., 60% ± 5% RH, listed as Example 8) [% w/w]	Chromatographic Purity (1M storage at 40° C. ± 2° C./75% ± 5% RH) ([2]; 40° C. ± 2° C., 75% ± 5% RH, listed as Example 8) [% w/w]	Chromatographic Purity (Initial) ([2]; listed as Example 8) [% w/w]
CCN(CC)CCNC(=O)c1c(C)[nH]c(/C=C2\C(=O)Nc3ccc(F)cc32)c1C.O=C(O)C[C@H](O)C(=O)O [stable crystalline Form II]	does not convert to any other form or absorb moisture on storage										
CCN(CC)CCNC(=O)c1c(C)[nH]c(/C=C2\C(=O)Nc3ccc(F)cc32)c1C.O=C(O)C[C@H](O)C(=O)O [Example 1, butanedioic acid, hydroxy-, (2S)-, compound with N-[2-(diethylamino)ethyl]-5-[(Z)-(5-fluoro-1,2-dihydro-2-oxo-3H-indol-3-ylidine)methyl]-2,4-dimethyl-1H-pyrrole-3-carboxamide (1:1)]		98.4	98.4	97.0	97.0	99.1	99.10				
CCN(CC)CCNC(=O)c1c(C)[nH]c(/C=C2\C(=O)Nc3ccc(F)cc32)c1C.O=C(O)C[C@H](O)C(=O)O [Example 2, butanedioic acid, hydroxy-, (2S)-, compound with N-[2-(diethylamino)ethyl]-5-[(Z)-(5-fluoro-1,2-dihydro-2-oxo-3H-indol-3-ylidine)methyl]-2,4-dimethyl-1H-pyrrole-3-carboxamide (1:1)]		98.7	98.7	97.3	97.3	99.7	99.70				
CCN(CC)CCNC(=O)c1c(C)[nH]c(/C=C2\C(=O)Nc3ccc(F)cc32)c1C.O=C(O)C[C@H](O)C(=O)O [Form II of sunitinib L-malate]								hygroscopic			
CCN(CC)CCNC(=O)c1c(C)[nH]c(/C=C2\C(=O)Nc3ccc(F)cc32)c1C.O=C(O)C[C@H](O)C(=O)O [Example 4, butanedioic acid, hydroxy-, (2S)-, compound with N-[2-(diethylamino)ethyl]-5-[(Z)-(5-fluoro-1,2-dihydro-2-oxo-3H-indol-3-ylidine)methyl]-2,4-dimethyl-1H-pyrrole-3-carboxamide (1:1)]		99.7	99.70	99.3	99.3	99.7	99.70				
CCN(CC)CCNC(=O)c1c(C)[nH]c(/C=C2\C(=O)Nc3ccc(F)cc32)c1C.O=C(O)C[C@H](O)C(=O)O [Example 7, butanedioic acid, hydroxy-, (2S)-, compound with N-[2-(diethylamino)ethyl]-5-[(Z)-(5-fluoro-1,2-dihydro-2-oxo-3H-indol-3-ylidine)methyl]-2,4-dimethyl-1H-pyrrole-3-carboxamide (1:1)]			87.4		87.8		99.50		87.4	87.8	99.5

Source: patent US9604968B2, “Pure crystalline Form II of L-malic acid salt of sunitinib and processes for its preparation” (RANBAXY LABORATORIES LIMITED, priority 2013, dated 2017)
